{"source": "paper PMC10937199", "about": "(ESMO Open, 2024)", "key": {"[1]": {"assay": "Food effect on peposertib pharmacokinetics, Part FE", "type": "in vivo, human", "settings": "after a single dose, sampling did not cover tmax"}, "[2]": {"test_system": "patients with advanced solid tumors", "settings": "Part B, 100-250 mg q.d."}, "[3]": {"test_system": "patients with advanced solid tumors", "assay": "Safety", "type": "in vivo, human", "settings": "Part A"}}, "data": [{"smiles": "COc1ccc([C@@H](O)c2cc(-c3ncnc4cc(N5CCOCC5)ccc34)c(F)cc2Cl)nn1", "note": "[Peposertib]", "values": [{"measurement": "Effect of food on peposertib Cmax", "setting": "[1]", "value": "food delayed peposertib Cmax"}, {"measurement": "DLT", "setting": "[2]", "value": "no DLT was reported"}, {"measurement": "IRR", "setting": "[3]; 100 mg b.i.d., all grade", "value": "0 n (%)"}, {"measurement": "Immune-related AE", "setting": "[3]; 100 mg b.i.d., all grade", "value": "0 n (%)"}, {"measurement": "Serious TEAE", "setting": "[3]; 100 mg b.i.d., all grade", "value": "0 n (%)"}, {"measurement": "Serious TEAE, peposertib related", "setting": "[3]; 100 mg b.i.d., all grade", "value": "0 n (%)"}, {"measurement": "Serious TEAE, treatment related", "setting": "[3]; 100 mg b.i.d., all grade", "value": "0 n (%)"}, {"measurement": "TEAE", "setting": "[3]; 100 mg b.i.d., all grade", "value": "3 (75.0) n (%)"}, {"measurement": "TEAE, peposertib related", "setting": "[3]; 100 mg b.i.d., all grade", "value": "2 (50.0) n (%)"}, {"measurement": "TEAE, treatment related", "setting": "[3]; 100 mg b.i.d., all grade", "value": "3 (75.0) n (%)"}, {"measurement": "TEAEs leading to death", "setting": "[3]; 100 mg b.i.d., all grade", "value": "0 n (%)"}, {"measurement": "Treatment-related AE leading to death", "setting": "[3]; 100 mg b.i.d., all grade", "value": "0 n (%)"}, {"measurement": "IRR", "setting": "[3]; 100 mg b.i.d., grade ≥3", "value": "0 n (%)"}, {"measurement": "Immune-related AE", "setting": "[3]; 100 mg b.i.d., grade ≥3", "value": "0 n (%)"}, {"measurement": "Serious TEAE", "setting": "[3]; 100 mg b.i.d., grade ≥3", "value": "0 n (%)"}, {"measurement": "Serious TEAE, peposertib related", "setting": "[3]; 100 mg b.i.d., grade ≥3", "value": "0 n (%)"}, {"measurement": "Serious TEAE, treatment related", "setting": "[3]; 100 mg b.i.d., grade ≥3", "value": "0 n (%)"}, {"measurement": "TEAE", "setting": "[3]; 100 mg b.i.d., grade ≥3", "value": "0 n (%)"}, {"measurement": "TEAE, peposertib related", "setting": "[3]; 100 mg b.i.d., grade ≥3", "value": "0 n (%)"}, {"measurement": "TEAE, treatment related", "setting": "[3]; 100 mg b.i.d., grade ≥3", "value": "0 n (%)"}, {"measurement": "TEAEs leading to death", "setting": "[3]; 100 mg b.i.d., grade ≥3", "value": "0 n (%)"}, {"measurement": "Treatment-related AE leading to death", "setting": "[3]; 100 mg b.i.d., grade ≥3", "value": "0 n (%)"}, {"measurement": "Immune-related AE", "setting": "[3]; 200 mg b.i.d., all grade", "value": "2 (18.2) n (%)"}, {"measurement": "Serious TEAE", "setting": "[3]; 200 mg b.i.d., all grade", "value": "6 (54.5) n (%)"}, {"measurement": "Serious TEAE, peposertib related", "setting": "[3]; 200 mg b.i.d., all grade", "value": "0 n (%)"}, {"measurement": "Serious TEAE, treatment related", "setting": "[3]; 200 mg b.i.d., all grade", "value": "3 (27.3) n (%)"}, {"measurement": "TEAE", "setting": "[3]; 200 mg b.i.d., all grade", "value": "11 (100.0) n (%)"}, {"measurement": "TEAE, peposertib related", "setting": "[3]; 200 mg b.i.d., all grade", "value": "10 (90.9) n (%)"}, {"measurement": "TEAE, treatment related", "setting": "[3]; 200 mg b.i.d., all grade", "value": "10 (90.9) n (%)"}, {"measurement": "TEAEs leading to death", "setting": "[3]; 200 mg b.i.d., all grade", "value": "0 n (%)"}, {"measurement": "Treatment-related AE leading to death", "setting": "[3]; 200 mg b.i.d., all grade", "value": "0 n (%)"}, {"measurement": "IRR", "setting": "[3]; 200 mg b.i.d., grade ≥3", "value": "0 n (%)"}, {"measurement": "Immune-related AE", "setting": "[3]; 200 mg b.i.d., grade ≥3", "value": "2 (18.2) n (%)"}, {"measurement": "Serious TEAE", "setting": "[3]; 200 mg b.i.d., grade ≥3", "value": "6 (54.5) n (%)"}, {"measurement": "Serious TEAE, peposertib related", "setting": "[3]; 200 mg b.i.d., grade ≥3", "value": "0 n (%)"}, {"measurement": "Serious TEAE, treatment related", "setting": "[3]; 200 mg b.i.d., grade ≥3", "value": "3 (27.3) n (%)"}, {"measurement": "TEAE", "setting": "[3]; 200 mg b.i.d., grade ≥3", "value": "7 (63.6) n (%)"}, {"measurement": "TEAE, peposertib related", "setting": "[3]; 200 mg b.i.d., grade ≥3", "value": "2 (18.2) n (%)"}, {"measurement": "TEAE, treatment related", "setting": "[3]; 200 mg b.i.d., grade ≥3", "value": "4 (36.4) n (%)"}, {"measurement": "TEAEs leading to death", "setting": "[3]; 200 mg b.i.d., grade ≥3", "value": "0 n (%)"}, {"measurement": "Treatment-related AE leading to death", "setting": "[3]; 200 mg b.i.d., grade ≥3", "value": "0 n (%)"}, {"measurement": "Peposertib-related pneumonitis", "setting": "[3]; 250 mg b.i.d.", "value": 25.0, "unit": "%"}, {"measurement": "Serious TEAE: diarrhea", "setting": "[3]; 250 mg b.i.d.", "value": 2, "unit": "n"}, {"measurement": "IRR", "setting": "[3]; 250 mg b.i.d., all grade", "value": "0 n (%)"}, {"measurement": "Immune-related AE", "setting": "[3]; 250 mg b.i.d., all grade", "value": "3 (75.0) n (%)"}, {"measurement": "Serious TEAE", "setting": "[3]; 250 mg b.i.d., all grade", "value": "4 (100.0) n (%)"}, {"measurement": "Serious TEAE, peposertib related", "setting": "[3]; 250 mg b.i.d., all grade", "value": "2 (50.0) n (%)"}, {"measurement": "Serious TEAE, treatment related", "setting": "[3]; 250 mg b.i.d., all grade", "value": "3 (75.0) n (%)"}, {"measurement": "TEAE", "setting": "[3]; 250 mg b.i.d., all grade", "value": "4 (100.0) n (%)"}, {"measurement": "TEAE, peposertib related", "setting": "[3]; 250 mg b.i.d., all grade", "value": "3 (75.0) n (%)"}, {"measurement": "TEAE, treatment related", "setting": "[3]; 250 mg b.i.d., all grade", "value": "3 (75.0) n (%)"}, {"measurement": "TEAEs leading to death", "setting": "[3]; 250 mg b.i.d., all grade", "value": "0 n (%)"}, {"measurement": "Treatment-related AE leading to death", "setting": "[3]; 250 mg b.i.d., all grade", "value": "0 n (%)"}, {"measurement": "IRR", "setting": "[3]; 250 mg b.i.d., grade ≥3", "value": "0 n (%)"}, {"measurement": "Immune-related AE", "setting": "[3]; 250 mg b.i.d., grade ≥3", "value": "2 (50.0) n (%)"}, {"measurement": "Serious TEAE", "setting": "[3]; 250 mg b.i.d., grade ≥3", "value": "4 (100.0) n (%)"}, {"measurement": "Serious TEAE, peposertib related", "setting": "[3]; 250 mg b.i.d., grade ≥3", "value": "2 (50.0) n (%)"}, {"measurement": "Serious TEAE, treatment related", "setting": "[3]; 250 mg b.i.d., grade ≥3", "value": "3 (75.0) n (%)"}, {"measurement": "TEAE", "setting": "[3]; 250 mg b.i.d., grade ≥3", "value": "4 (100.0) n (%)"}, {"measurement": "TEAE, peposertib related", "setting": "[3]; 250 mg b.i.d., grade ≥3", "value": "2 (50.0) n (%)"}, {"measurement": "TEAE, treatment related", "setting": "[3]; 250 mg b.i.d., grade ≥3", "value": "3 (75.0) n (%)"}, {"measurement": "TEAEs leading to death", "setting": "[3]; 250 mg b.i.d., grade ≥3", "value": "0 n (%)"}, {"measurement": "Treatment-related AE leading to death", "setting": "[3]; 250 mg b.i.d., grade ≥3", "value": "0 n (%)"}, {"measurement": "Serious TEAE: disease progression", "setting": "[3]; 300 mg b.i.d.", "value": 2, "unit": "n"}, {"measurement": "IRR", "setting": "[3]; 300 mg b.i.d., all grade", "value": "0 n (%)"}, {"measurement": "Immune-related AE", "setting": "[3]; 300 mg b.i.d., all grade", "value": "2 (33.3) n (%)"}, {"measurement": "Serious TEAE", "setting": "[3]; 300 mg b.i.d., all grade", "value": "4 (66.7) n (%)"}, {"measurement": "Serious TEAE, peposertib related", "setting": "[3]; 300 mg b.i.d., all grade", "value": "0 n (%)"}, {"measurement": "Serious TEAE, treatment related", "setting": "[3]; 300 mg b.i.d., all grade", "value": "1 (16.7) n (%)"}, {"measurement": "TEAE", "setting": "[3]; 300 mg b.i.d., all grade", "value": "6 (100.0) n (%)"}, {"measurement": "TEAE, peposertib related", "setting": "[3]; 300 mg b.i.d., all grade", "value": "3 (50.0) n (%)"}, {"measurement": "TEAE, treatment related", "setting": "[3]; 300 mg b.i.d., all grade", "value": "4 (66.7) n (%)"}, {"measurement": "TEAEs leading to death", "setting": "[3]; 300 mg b.i.d., all grade", "value": "2 (33.3) n (%)"}, {"measurement": "Treatment-related AE leading to death", "setting": "[3]; 300 mg b.i.d., all grade", "value": "0 n (%)"}, {"measurement": "IRR", "setting": "[3]; 300 mg b.i.d., grade ≥3", "value": "0 n (%)"}, {"measurement": "Immune-related AE", "setting": "[3]; 300 mg b.i.d., grade ≥3", "value": "2 (33.3) n (%)"}, {"measurement": "Serious TEAE", "setting": "[3]; 300 mg b.i.d., grade ≥3", "value": "4 (66.7) n (%)"}, {"measurement": "Serious TEAE, peposertib related", "setting": "[3]; 300 mg b.i.d., grade ≥3", "value": "0 n (%)"}, {"measurement": "Serious TEAE, treatment related", "setting": "[3]; 300 mg b.i.d., grade ≥3", "value": "1 (16.7) n (%)"}, {"measurement": "TEAE", "setting": "[3]; 300 mg b.i.d., grade ≥3", "value": "5 (83.3) n (%)"}, {"measurement": "TEAE, peposertib related", "setting": "[3]; 300 mg b.i.d., grade ≥3", "value": "0 n (%)"}, {"measurement": "TEAE, treatment related", "setting": "[3]; 300 mg b.i.d., grade ≥3", "value": "2 (33.3) n (%)"}]}]}
